# Laboratory results from ChEMBL document CHEMBL5678818, “Discovery of potent SOS1 inhibitors that block RAS activation via disruption of the RAS-SOS1 interaction” (Proc Natl Acad Sci U S A, 2019).
# Experiments:
# [1] = biological target: RAC-alpha serine/threonine-protein kinase (Homo sapiens) (UniProt P31749); assay: Inhibition of AKT1 (unknown origin) assessed as residual activity at 1000 nM by KINOMEscan analysis relative to control
# [2] = biological target: Tyrosine-protein kinase Fgr (Homo sapiens) (UniProt P09769); assay: Inhibition of FGR (unknown origin) assessed as residual activity at 1000 nM by KINOMEscan analysis relative to control
# [3] = biological target: Rho-associated protein kinase 1 (Homo sapiens) (UniProt Q13464); assay: Inhibition of ROCK1 (unknown origin) assessed as residual activity at 1000 nM by KINOMEscan analysis relative to control
# [4] = biological target: Serine/threonine-protein kinase PLK3 (Homo sapiens) (UniProt Q9H4B4); assay: Inhibition of PLK3 (unknown origin) assessed as residual activity at 1000 nM by KINOMEscan analysis relative to control
# [5] = biological target: T1, NUAK family SNF1-like kinase 2 (Homo sapiens) (UniProt Q9H093); assay: Inhibition of SNARK (unknown origin) assessed as residual activity at 1000 nM by KINOMEscan analysis relative to control
# T1 sequence (whole entry): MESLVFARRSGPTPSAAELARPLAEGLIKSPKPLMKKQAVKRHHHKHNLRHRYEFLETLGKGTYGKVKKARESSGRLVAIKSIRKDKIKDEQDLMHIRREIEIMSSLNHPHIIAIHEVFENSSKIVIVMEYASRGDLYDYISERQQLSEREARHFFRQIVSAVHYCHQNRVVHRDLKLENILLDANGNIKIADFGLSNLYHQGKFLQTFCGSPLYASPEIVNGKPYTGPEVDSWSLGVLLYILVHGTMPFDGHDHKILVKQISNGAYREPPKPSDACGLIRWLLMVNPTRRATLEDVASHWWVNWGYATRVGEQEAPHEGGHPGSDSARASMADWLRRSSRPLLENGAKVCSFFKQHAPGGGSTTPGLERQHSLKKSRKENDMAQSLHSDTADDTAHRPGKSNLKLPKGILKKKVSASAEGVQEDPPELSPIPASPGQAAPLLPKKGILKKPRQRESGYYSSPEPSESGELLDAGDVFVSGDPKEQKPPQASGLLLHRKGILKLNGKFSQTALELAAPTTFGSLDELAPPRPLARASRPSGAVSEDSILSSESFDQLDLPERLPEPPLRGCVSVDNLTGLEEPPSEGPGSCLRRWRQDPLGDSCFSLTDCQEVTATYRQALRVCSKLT
# [6] = biological target: T2, Mitogen-activated protein kinase kinase kinase 5 (Homo sapiens) (UniProt Q99683); assay: Inhibition of ASK1 (unknown origin) assessed as residual activity at 1000 nM by KINOMEscan analysis relative to control
# T2 sequence (whole entry): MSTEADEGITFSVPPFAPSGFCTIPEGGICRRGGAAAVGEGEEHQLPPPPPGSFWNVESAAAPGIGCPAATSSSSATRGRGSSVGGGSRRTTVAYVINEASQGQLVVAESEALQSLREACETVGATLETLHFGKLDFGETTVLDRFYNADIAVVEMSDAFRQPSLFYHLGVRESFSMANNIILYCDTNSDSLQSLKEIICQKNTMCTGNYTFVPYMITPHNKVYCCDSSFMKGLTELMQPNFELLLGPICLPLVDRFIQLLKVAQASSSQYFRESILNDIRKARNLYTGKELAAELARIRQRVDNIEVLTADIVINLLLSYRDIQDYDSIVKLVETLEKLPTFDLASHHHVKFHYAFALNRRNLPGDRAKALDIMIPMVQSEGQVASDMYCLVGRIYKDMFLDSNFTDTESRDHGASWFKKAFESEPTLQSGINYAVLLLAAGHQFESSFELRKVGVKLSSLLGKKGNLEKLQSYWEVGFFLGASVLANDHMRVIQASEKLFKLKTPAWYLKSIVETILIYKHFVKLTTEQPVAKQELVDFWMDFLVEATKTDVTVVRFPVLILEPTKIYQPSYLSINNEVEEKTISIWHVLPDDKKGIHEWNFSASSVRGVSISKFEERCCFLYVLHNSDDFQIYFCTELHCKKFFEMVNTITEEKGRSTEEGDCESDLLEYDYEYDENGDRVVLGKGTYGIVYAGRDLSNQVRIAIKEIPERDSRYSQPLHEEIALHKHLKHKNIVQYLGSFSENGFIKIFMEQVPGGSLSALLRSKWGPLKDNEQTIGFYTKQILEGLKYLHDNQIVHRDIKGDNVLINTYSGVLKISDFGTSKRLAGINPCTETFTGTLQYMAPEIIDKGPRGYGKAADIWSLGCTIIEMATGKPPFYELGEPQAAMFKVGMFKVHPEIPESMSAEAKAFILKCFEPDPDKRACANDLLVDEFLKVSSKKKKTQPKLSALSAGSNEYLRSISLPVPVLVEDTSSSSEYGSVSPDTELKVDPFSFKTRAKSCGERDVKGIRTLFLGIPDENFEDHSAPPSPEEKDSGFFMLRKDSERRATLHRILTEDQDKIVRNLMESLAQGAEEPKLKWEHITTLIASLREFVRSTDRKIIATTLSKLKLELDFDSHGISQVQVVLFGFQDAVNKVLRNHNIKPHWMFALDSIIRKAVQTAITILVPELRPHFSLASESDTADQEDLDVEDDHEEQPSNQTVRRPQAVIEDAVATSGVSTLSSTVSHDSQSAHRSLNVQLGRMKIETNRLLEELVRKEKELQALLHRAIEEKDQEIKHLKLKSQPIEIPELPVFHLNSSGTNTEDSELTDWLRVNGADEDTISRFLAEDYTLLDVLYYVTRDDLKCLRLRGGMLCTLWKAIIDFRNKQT
# [7] = biological target: Calcium/calmodulin-dependent protein kinase type II subunit alpha (Homo sapiens) (UniProt Q9UQM7); assay: Inhibition of CAMK2A (unknown origin) assessed as residual activity at 1000 nM by KINOMEscan analysis relative to control
# [8] = biological target: Serine/threonine-protein kinase NIM1 (Homo sapiens) (UniProt Q8IY84); assay: Inhibition of NIM1 (unknown origin) assessed as residual activity at 1000 nM by KINOMEscan analysis relative to control
# [9] = biological target: Death-associated protein kinase 3 (Homo sapiens) (UniProt O43293); assay: Inhibition of DAPK3 (unknown origin) assessed as residual activity at 1000 nM by KINOMEscan analysis relative to control
# Chain of Death-associated protein kinase 3 (Homo sapiens) (O43293 whole entry, looked up): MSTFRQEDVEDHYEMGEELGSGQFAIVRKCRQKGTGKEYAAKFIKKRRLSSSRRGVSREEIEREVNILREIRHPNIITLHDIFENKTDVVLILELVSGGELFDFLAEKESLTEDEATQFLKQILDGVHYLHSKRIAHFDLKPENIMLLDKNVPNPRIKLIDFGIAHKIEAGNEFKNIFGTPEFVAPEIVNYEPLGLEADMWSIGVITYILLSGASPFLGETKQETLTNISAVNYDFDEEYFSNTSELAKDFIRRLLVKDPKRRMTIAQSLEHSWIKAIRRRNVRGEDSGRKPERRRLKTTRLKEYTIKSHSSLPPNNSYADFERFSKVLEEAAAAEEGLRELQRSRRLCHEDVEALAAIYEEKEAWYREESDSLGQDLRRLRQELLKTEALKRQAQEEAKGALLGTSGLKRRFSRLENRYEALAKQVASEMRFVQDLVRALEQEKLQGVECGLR
# Chain of Tyrosine-protein kinase Fgr (Homo sapiens) (P09769 2-529 limits assumed): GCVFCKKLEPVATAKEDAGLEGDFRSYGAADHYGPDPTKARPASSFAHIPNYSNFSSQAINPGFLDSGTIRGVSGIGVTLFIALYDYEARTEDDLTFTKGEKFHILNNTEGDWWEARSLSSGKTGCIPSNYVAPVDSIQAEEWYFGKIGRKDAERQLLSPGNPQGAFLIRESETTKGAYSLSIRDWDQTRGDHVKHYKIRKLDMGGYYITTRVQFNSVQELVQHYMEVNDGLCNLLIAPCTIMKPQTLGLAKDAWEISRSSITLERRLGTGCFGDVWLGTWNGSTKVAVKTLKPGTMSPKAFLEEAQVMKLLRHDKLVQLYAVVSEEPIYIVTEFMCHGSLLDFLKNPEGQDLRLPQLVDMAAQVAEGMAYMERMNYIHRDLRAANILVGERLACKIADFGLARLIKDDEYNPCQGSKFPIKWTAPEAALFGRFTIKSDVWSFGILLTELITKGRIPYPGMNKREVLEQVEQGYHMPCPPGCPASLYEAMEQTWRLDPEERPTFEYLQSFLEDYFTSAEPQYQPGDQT
# Chain of Serine/threonine-protein kinase PLK3 (Homo sapiens) (Q9H4B4 whole entry, looked up): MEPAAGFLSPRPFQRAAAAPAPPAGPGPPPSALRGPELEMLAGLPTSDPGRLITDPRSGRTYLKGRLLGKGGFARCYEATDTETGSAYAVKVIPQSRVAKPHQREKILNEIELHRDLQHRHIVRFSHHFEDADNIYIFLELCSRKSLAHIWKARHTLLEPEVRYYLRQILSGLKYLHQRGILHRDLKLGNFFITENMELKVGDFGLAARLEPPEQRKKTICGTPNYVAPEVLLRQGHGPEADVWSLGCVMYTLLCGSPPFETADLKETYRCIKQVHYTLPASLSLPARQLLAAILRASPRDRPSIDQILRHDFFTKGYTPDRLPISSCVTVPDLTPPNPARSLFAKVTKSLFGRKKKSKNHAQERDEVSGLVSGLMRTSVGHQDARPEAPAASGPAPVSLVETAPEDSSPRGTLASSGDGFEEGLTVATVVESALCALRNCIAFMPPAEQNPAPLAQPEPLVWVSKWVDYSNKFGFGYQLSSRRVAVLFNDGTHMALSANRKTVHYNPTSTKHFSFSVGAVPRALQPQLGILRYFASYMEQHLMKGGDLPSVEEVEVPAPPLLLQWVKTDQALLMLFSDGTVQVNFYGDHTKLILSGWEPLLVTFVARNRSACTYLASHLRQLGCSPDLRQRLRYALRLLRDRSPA
# Chain of Rho-associated protein kinase 1 (Homo sapiens) (Q13464 2-1354 limits assumed): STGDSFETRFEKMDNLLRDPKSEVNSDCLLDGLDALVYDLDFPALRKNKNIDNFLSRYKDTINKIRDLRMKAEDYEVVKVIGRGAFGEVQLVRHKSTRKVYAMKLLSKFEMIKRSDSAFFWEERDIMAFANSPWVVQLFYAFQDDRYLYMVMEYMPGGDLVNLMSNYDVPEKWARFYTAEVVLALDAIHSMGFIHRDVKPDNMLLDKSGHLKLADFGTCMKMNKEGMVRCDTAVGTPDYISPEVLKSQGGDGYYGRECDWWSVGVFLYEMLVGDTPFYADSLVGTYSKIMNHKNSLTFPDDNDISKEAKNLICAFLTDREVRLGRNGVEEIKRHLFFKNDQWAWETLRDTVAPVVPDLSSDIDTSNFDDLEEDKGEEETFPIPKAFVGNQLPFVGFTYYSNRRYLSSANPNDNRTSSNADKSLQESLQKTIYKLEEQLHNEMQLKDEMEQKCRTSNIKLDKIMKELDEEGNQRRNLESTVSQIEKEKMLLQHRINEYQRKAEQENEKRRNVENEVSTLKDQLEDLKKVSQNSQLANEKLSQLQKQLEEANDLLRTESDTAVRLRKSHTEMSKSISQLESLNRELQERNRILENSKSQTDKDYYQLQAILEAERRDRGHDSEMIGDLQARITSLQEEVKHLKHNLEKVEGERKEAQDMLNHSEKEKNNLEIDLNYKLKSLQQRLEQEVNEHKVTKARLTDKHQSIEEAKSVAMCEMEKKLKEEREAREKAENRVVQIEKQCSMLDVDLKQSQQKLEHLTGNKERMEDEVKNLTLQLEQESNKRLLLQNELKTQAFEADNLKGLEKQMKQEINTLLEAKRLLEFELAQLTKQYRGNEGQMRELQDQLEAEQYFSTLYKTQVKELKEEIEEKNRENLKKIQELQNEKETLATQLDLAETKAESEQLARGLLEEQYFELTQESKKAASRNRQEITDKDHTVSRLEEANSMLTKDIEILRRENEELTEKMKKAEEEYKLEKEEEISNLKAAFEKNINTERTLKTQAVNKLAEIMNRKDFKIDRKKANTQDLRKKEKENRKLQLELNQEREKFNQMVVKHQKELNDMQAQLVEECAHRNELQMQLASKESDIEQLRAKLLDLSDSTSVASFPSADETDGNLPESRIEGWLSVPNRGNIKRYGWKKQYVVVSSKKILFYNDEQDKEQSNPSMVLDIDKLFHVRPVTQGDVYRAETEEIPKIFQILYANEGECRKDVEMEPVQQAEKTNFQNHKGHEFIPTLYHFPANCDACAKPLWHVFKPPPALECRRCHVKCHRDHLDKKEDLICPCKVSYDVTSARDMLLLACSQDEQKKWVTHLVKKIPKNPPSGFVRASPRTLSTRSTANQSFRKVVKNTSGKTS
# Chain of RAC-alpha serine/threonine-protein kinase (Homo sapiens) (P31749 whole entry): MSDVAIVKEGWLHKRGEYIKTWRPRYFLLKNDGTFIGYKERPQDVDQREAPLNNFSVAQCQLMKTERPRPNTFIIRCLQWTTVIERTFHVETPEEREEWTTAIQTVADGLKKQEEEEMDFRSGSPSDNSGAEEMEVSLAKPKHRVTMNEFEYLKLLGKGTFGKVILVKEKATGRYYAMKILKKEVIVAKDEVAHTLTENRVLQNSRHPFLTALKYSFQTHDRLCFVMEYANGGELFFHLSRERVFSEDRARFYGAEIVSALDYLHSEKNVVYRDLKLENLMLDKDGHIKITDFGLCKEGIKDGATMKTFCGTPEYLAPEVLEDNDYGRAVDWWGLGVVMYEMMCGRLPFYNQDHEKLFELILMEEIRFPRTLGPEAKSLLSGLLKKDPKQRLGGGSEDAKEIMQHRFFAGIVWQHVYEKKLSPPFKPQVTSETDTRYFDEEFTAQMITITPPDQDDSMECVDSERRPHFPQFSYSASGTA
# Chain of Serine/threonine-protein kinase NIM1 (Homo sapiens) (Q8IY84 whole entry): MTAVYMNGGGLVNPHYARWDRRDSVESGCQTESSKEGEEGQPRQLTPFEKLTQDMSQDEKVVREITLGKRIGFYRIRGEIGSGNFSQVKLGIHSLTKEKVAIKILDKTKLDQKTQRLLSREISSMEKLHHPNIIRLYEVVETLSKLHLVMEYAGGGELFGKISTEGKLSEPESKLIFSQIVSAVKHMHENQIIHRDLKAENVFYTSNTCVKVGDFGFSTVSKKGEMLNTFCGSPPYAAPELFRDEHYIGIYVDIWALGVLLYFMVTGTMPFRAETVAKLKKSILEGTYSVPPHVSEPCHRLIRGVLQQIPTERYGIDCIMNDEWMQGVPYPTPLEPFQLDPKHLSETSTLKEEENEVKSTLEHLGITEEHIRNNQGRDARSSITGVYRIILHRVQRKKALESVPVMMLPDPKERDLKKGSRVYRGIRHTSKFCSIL
# Chain of Calcium/calmodulin-dependent protein kinase type II subunit alpha (Homo sapiens) (Q9UQM7 whole entry): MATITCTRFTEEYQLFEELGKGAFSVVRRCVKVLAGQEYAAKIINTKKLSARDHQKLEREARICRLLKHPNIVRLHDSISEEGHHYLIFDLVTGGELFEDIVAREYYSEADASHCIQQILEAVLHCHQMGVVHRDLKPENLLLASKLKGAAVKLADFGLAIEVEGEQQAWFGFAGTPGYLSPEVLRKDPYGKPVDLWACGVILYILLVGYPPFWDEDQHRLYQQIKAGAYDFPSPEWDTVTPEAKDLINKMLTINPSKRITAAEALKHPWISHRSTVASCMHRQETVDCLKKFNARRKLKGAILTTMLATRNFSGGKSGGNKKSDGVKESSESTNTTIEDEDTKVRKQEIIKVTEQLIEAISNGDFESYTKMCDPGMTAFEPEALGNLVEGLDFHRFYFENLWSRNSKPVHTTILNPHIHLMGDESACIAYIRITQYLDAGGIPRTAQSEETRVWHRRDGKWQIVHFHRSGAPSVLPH
SMILES,Activity [1] [%],Activity [2] [%],Activity [3] [%],Activity [4] [%],Activity [5] [%],Activity [6] [%],Activity [7] [%],Activity [8] [%],Activity [9] [%]
COc1cc2nc(C)nc(N[C@H](C)c3cccc(-c4cn[nH]c4)c3)c2cc1OC,82,48,96,88,100,100,94,88,76
COc1cc2ncnc(N[C@H](C)c3cccc4ccccc34)c2cc1OC,87,95,88,81,95,76,95,78,100
